Results as given in ChEMBL document CHEMBL2434911, “Flavone-based analogues inspired by the natural product simocyclinone D8 as DNA gyrase inhibitors” (Bioorg Med Chem Lett, 2013).
Active and inactive are the calls of the source. The calls are words filed in the database; no cut-off is given here.

Tests used:
[1] = molecular target: T1, DNA topoisomerase 2-alpha (Homo sapiens, UniProt P11388); experiment: Inhibition of cleavage activity of human topoisomerase 2 using relaxed pBR322 as substrate at 200 uM after 10 mins by agarose gel electrophoresis analysis relative to control
T1 sequence (P11388 whole entry): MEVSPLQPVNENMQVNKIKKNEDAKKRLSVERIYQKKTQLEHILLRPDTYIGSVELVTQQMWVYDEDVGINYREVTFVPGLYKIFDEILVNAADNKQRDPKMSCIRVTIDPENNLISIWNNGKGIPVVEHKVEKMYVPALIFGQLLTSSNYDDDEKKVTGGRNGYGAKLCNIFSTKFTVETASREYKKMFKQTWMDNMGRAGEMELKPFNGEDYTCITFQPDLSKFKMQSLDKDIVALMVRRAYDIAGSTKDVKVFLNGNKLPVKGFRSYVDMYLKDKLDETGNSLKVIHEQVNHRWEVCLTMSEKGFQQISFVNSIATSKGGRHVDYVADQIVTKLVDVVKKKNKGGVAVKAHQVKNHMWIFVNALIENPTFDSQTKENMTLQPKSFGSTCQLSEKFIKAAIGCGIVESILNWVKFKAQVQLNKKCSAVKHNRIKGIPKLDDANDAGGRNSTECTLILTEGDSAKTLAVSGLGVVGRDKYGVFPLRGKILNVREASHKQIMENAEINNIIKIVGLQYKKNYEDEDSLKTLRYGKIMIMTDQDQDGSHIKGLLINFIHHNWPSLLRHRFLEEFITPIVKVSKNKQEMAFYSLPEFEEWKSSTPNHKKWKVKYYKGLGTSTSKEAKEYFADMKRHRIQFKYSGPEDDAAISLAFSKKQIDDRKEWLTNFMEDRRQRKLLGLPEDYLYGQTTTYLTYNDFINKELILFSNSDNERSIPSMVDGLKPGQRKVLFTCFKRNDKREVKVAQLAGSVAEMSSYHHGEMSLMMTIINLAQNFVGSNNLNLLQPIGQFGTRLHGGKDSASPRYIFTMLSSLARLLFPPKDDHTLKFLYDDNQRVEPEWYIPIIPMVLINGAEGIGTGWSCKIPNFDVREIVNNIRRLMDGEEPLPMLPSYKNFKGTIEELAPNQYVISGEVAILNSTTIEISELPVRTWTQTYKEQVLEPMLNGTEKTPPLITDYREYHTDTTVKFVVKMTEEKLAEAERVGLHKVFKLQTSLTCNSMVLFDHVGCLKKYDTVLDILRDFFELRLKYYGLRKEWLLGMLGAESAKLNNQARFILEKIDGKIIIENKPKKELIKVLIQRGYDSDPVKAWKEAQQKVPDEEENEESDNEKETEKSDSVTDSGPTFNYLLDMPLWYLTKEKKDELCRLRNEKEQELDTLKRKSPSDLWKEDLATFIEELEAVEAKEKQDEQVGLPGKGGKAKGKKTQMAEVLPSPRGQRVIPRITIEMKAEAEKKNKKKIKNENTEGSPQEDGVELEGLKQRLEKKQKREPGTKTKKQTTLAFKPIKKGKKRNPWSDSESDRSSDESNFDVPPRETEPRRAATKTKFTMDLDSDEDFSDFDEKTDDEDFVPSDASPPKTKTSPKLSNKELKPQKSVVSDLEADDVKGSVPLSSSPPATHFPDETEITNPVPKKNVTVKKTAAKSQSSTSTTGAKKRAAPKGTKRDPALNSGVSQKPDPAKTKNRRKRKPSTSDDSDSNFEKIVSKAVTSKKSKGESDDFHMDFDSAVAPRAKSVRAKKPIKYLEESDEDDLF

[2] = Inhibition of supercoiling activity of Escherichia coli DNA gyrase using relaxed pBR322 as substrate after 15 mins by ethidium bromide staining
Bos taurus = species: Bos taurus; experiment: Inhibition of supercoiling activity of calf thymus topoisomerase 1 using […] as substrate after 15 mins by ethidium bromide staining
Escherichia coli [3] = experiment: Inhibition of cleavage activity of Escherichia coli DNA gyrase using relaxed pBR322 as substrate at 200 uM after 10 mins by agarose gel electrophoresis analysis relative to control
Escherichia coli [4] = experiment: Inhibition of Escherichia coli DNA gyrase interaction to 5'-biotinylated DNA after 4 mins by surface plasmon resonance analysis
[5] = molecular target: T1, DNA topoisomerase 2-alpha; experiment: Inhibition of human topoisomerase 2 using […] as substrate after 10 mins by decatenation assay

Compound | fold change (FC) [1] | IC50 [2] [µM] | inhibition (Bos taurus) | fold change (FC) (Escherichia coli [3]) | inhibition (Escherichia coli [4]) | IC50 [5] [µM]
O=C(CCCCCC(=O)Oc1c(-c2ccc(O)c(O)c2)oc2cc(O)cc(O)c2c1=O)NCC(=O)Nc1ccccc1 | 2.7 | 48.6 | Active | 7.8 | inactive | 149
O=C(CCCCCC(=O)Oc1c(-c2ccc(O)c(O)c2)oc2cc(O)cc(O)c2c1=O)NCC(=O)Nc1ccc(O)cc1 | 2.4 | 84.7 | Active | 5 | inactive | > 200
O=c1c(O)c(-c2ccc(O)c(O)c2)oc2cc(O)cc(O)c12 | – | – | Active | – | – | –
COC(=O)/C=C/C=C/C=C/C=C/C(=O)Nc1c(O)c2ccc(O)c(Cl)c2oc1=O | – | 50 | – | – | – | –
COC(=O)CCCCCCCCC(=O)Oc1c(-c2ccc(O)c(O)c2)oc2cc(O)cc(O)c2c1=O | < 1 | > 200 | inactive | < 1 | – | > 200
O=C(CCCCCC(=O)Oc1c(-c2ccc(O)c(O)c2)oc2cc(O)cc(O)c2c1=O)NCC(=O)Nc1ccc(O)c(CO)c1 | < 1 | > 200 | inactive | 1.9 | – | 78.9
O=C(O)Cc1ccc(NC(=O)CNC(=O)CCCCCC(=O)Oc2c(-c3ccc(O)c(O)c3)oc3cc(O)cc(O)c3c2=O)cc1 | < 1 | > 200 | inactive | 1.8 | – | > 200
CC(=O)O[C@@H]1[C@@H](C)O[C@@H](c2ccc3c(c2O)[C@@H](O)[C@]24O[C@@]2(C3=O)[C@@]2(O)C(=O)C=C(C)C[C@@]2(O)C[C@@H]4O)C[C@H]1OC(=O)/C=C/C=C/C=C/C=C/C(=O)Nc1c(O)c2ccc(O)c(Cl)c2oc1=O [SIMOCYCLINONE D8] | – | 0.41 | – | < 1 | – | –
O=C(CCCCCC(=O)Oc1c(-c2ccc(O)c(O)c2)oc2cc(O)cc(O)c2c1=O)NCC(=O)Nc1ccc(CO)cc1 | 2.1 | > 200 | inactive | 3 | – | > 200
